Literature values as cited in US20260021104A1, “BRILAROXAZINE LIPOSOME COMPOSITION” (Reviva Pharmaceuticals, Inc., priority 2023, published 2026).

Legend:
D2-4 receptors = details: partial agonist
5-HT1A receptors = biological target: T1, 5-HT1A receptors (Homo sapiens, UniProt P08908); details: partial agonist
T1 sequence (P08908 1-422): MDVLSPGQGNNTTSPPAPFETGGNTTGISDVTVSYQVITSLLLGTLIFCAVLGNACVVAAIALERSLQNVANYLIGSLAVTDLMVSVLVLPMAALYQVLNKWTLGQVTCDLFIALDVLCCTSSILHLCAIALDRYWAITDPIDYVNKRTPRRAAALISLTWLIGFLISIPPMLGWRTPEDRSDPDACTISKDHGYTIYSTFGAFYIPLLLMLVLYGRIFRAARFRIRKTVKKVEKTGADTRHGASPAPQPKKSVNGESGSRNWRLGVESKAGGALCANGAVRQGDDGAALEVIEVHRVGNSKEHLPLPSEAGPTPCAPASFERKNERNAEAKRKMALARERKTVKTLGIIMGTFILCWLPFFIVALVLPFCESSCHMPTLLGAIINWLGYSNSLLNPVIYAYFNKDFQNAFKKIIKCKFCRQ

5-HT2A = 5-HT2A (Homo sapiens, UniProt P28223); details: weak partial agonist or neutral antagonist
5-HT2B/7 = details: antagonist
[1] = biological target: serotonin transporter (SERT) (Homo sapiens, UniProt P31645)
Sequence of serotonin transporter (SERT) (P31645 whole entry, species assumed): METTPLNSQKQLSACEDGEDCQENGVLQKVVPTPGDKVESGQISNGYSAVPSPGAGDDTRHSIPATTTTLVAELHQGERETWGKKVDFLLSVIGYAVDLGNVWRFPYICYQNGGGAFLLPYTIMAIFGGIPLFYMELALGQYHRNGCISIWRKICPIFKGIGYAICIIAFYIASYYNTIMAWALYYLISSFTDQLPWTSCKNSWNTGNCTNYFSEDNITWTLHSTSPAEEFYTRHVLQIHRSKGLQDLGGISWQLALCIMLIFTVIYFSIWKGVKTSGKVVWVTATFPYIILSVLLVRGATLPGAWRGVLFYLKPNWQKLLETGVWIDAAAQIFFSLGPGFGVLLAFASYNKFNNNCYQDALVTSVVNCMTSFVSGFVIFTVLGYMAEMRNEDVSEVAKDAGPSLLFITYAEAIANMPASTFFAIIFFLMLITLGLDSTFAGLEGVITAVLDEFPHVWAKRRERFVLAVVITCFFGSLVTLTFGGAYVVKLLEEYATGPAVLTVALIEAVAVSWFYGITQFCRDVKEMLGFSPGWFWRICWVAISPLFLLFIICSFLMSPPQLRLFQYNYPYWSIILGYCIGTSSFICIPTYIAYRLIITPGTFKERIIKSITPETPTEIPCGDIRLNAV

Sequence of 5-HT2A (P28223 whole entry, species assumed): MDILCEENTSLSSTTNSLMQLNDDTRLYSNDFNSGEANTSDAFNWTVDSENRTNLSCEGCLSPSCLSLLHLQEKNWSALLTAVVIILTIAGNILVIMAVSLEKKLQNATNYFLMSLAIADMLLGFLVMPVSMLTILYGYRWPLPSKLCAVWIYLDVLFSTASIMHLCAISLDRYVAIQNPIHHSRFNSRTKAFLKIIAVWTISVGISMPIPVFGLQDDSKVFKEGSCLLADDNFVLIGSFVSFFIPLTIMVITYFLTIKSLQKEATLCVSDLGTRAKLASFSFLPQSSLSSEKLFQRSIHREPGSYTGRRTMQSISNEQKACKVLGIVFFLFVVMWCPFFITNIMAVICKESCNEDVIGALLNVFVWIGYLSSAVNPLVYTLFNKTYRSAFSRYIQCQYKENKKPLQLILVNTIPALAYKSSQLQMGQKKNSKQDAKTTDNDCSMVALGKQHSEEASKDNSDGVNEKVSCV

## O=C1COc2ccc(OCCCCN3CCN(c4cccc(Cl)c4Cl)CC3)cc2N1 [Brilaroxazine]
D2-4 receptors
  binding affinity: high binding affinity
5-HT1A receptors
  binding affinity: high binding affinity
5-HT2A
  binding affinity: high binding affinity
5-HT2B/7
  binding affinity: high binding affinity
[1]
  affinity: moderate affinity
